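A five-concentration, 48-hour dose response in 96-well plates underlies each endpoint, interpolated linearly between surrounding concentrations. TGI marks complete inhibition of growth.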
Tests used:
Assay in all cases: NCI tumour cell line growth inhibition, 48 h
DLD-1 colon = system: DLD-1 colon
XF 498 CNS = system: XF 498 CNS
DMS 114 small cell lung = system: DMS 114 small cell lung
LXFL 529 NSCLC = system: LXFL 529 NSCLC
M19-MEL melanoma = system: M19-MEL melanoma
HOP-18 NSCLC = system: HOP-18 NSCLC
RXF-631 renal = system: RXF-631 renal
P388 leukemia = system: P388 leukemia
SN12K1 renal = system: SN12K1 renal
P388/ADR leukemia = system: P388/ADR leukemia

| Compound | TGI (DLD-1 colon) | TGI (XF 498 CNS) | TGI (DMS 114 small cell lung) | TGI (LXFL 529 NSCLC) | TGI (M19-MEL melanoma) | TGI (HOP-18 NSCLC) | TGI (RXF-631 renal) | TGI (P388 leukemia) | TGI (SN12K1 renal) | TGI (P388/ADR leukemia) |
| --- | --- | --- | --- | --- | --- | --- | --- | --- | --- | --- |
| Cc1c(Cl)c2ccccc2n1S(=O)(=O)c1ccccc1 | > 100 µM | > 100 µM | > 100 µM | > 100 µM |  |  |  |  |  |  |
| O=C(c1ccc(Cl)cc1)c1ccc(OCCCOc2ccc(C(=O)c3ccc(Cl)cc3)cc2)cc1 | > 100 µM | > 100 µM | > 100 µM | > 100 µM | > 100 µM |  |  |  |  |  |
| CCc1cc(Cc2cc(Cl)c(NC(=O)C(=O)C3NC(=O)NC3=O)c(CC)c2)cc(Cl)c1NC(=O)C(=O)C1NC(=O)NC1=O (stereo not given) |  |  | 83.9 µM | > 100 µM | > 100 µM | > 100 µM |  |  |  |  |
| N#CC1=C(N)n2c(s/c(=C\c3ccc(Cl)cc3)c2=O)=C(c2nc3ccccc3[nH]2)C1c1ccc(Cl)cc1 (stereo not given) | 15.4 µM | 3.38 µM | 4.37 µM | 4.58 µM | 9.15 µM |  |  |  |  |  |
| O=C(/N=C/c1c(O)c2ccccc2oc1=O)Nc1ccccc1 | > 100 µM | > 100 µM | > 100 µM | > 100 µM | > 100 µM | > 100 µM |  |  |  |  |
| NC(CCCC(N)P(=O)(O)c1ccccc1)P(=O)(O)c1ccccc1 (stereo not given) | > 261 µM | > 261 µM | > 261 µM | > 261 µM | > 261 µM | > 261 µM |  |  |  |  |
| CN1CCCC2(CCCc3ccccc32)C1 (stereo not given) | > 100 µM |  | > 100 µM | > 100 µM | > 100 µM |  | > 100 µM |  |  |  |
| Cc1cccc2c(=O)c([Se]c3coc4c(C)cccc4c3=O)coc12 | 41.5 µM | 34.8 µM | 31.7 µM | 29.2 µM | 30.3 µM | 41.2 µM |  |  |  |  |
| N[C@H](C(=O)O)[C@H]1ON=C(Cl)[C@@H]1O | > 550 µM | > 301 µM | > 422 µM |  | > 550 µM | > 550 µM |  | 17.5 µM | > 324 µM | 46.4 µM |
| Cc1ccc(N2Cc3c(ccc4ccccc34)OP2(=O)Oc2ccc(Cl)c(C)c2)cc1 (stereo not given) | > 100 µM | > 100 µM | > 100 µM |  | > 100 µM | > 100 µM |  | > 100 µM | > 100 µM | > 100 µM |
| Nc1nc(SCc2ccc([N+](=O)[O-])cc2)nc2c1ncn2C1OC(COP(=O)(O)O)C(O)C1O (stereo not given) | > 100 µM | > 100 µM | > 100 µM | > 100 µM |  |  |  |  |  |  |
| COc1cc2c(cc1OC)C(C(CO)CO)N(CC(O)CCl)CC2 (stereo not given) | > 100 µM | > 100 µM |  | > 100 µM | > 100 µM |  | > 100 µM |  |  |  |
| Cc1ccc(S(=O)(=O)N/N=C(\c2nc3ccc(Cl)cc3[nH]c2=O)C(O)c2cccc([N+](=O)[O-])c2)cc1 (stereo not given) | > 100 µM | > 100 µM | > 100 µM | > 100 µM | > 100 µM | > 100 µM | > 100 µM |  |  |  |
| O=c1[nH]c(=O)n(C2OC(COP(=O)(O)OP(=O)(O)OC3OC(CO)C(O)C(O)C3O)C(O)C2O)cc1F (stereo not given) | > 100 µM | 16.1 µM | > 100 µM | > 100 µM | 59.4 µM | > 100 µM | > 100 µM |  |  |  |
| CC(NC(=O)C(C)NC(=O)C(N)CCP(C)(=O)O)C(=O)O (stereo not given) | > 100 µM | > 100 µM |  |  | > 100 µM | > 100 µM |  | > 31.6 µM | > 100 µM | > 100 µM |
| O=C1c2ccc(O)cc2C(=O)c2ccc(O)cc21 | > 100 µM | > 100 µM | > 100 µM | > 100 µM | > 100 µM |  | > 100 µM |  |  |  |
| O=S(=O)(CCBr)CCBr | 8.66 µM |  | 6.72 µM |  | 15 µM | 32 µM |  | 5.67 µM | 19.7 µM | 12.1 µM |
| COc1cc2c(c(OC)c1OC)-c1ccc(SC)c(=O)cc1[C@@H](NCc1ccc(C#N)cc1)CC2 |  |  | 0.00534 µM | > 100 µM | > 100 µM |  |  |  |  |  |
| C[C@]12CCC(=O)C=C1CC[C@@H]1[C@@H]2[C@@H](O)C[C@@]2(C)[C@H]1CC[C@]2(O)C(=O)COC(=O)COCC(=O)O | > 100 µM | > 100 µM | > 100 µM |  | > 100 µM | > 100 µM |  |  |  |  |
| O=C1Nc2ccccc2C12CCNC2Cc1ccccc1 (stereo not given) | > 100 µM | > 100 µM | > 100 µM | > 100 µM | > 100 µM | > 100 µM |  |  |  |  |
| CC(C)OP(=O)(OC(C)C)/C(I)=N/Nc1ccc([N+](=O)[O-])cc1 | > 100 µM | > 100 µM | > 100 µM | > 100 µM | > 100 µM |  |  |  |  |  |
| CN(C)c1ccc(C(=C(c2ccc(N(C)C)cc2)c2ccc(N(C)C)cc2)c2ccc(N(C)C)cc2)cc1 | 41.5 µM |  | 49.3 µM | 25.6 µM | 70.9 µM | 26.1 µM | 40.6 µM |  |  |  |

From PubChem BioAssay (NCI)
